Experimental data taken from the supplement of paper PMC3974653.
Counter-ions that a name gives are not always drawn.

test system: MTT (mouse pheochromocytoma); test: IC50 of cell viability (ATP content); settings: (24 or 48 h)
Method in brief: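 MTT mouse pheochromocytoma cells were seeded into white 1536-well plates at 5 µl per well from a 200,000 cells/ml suspension in DMEM with 5% FBS and 1% horse serum, then cultured overnight at 37°C, 5% CO2. A pintool added 23 nl of library compound in DMSO at 8 concentrations (final 0.5 nM to 46 µM) for 24 or 48 hrs, and CellTiter-Glo ATP luminescence was read after 15 minutes. Signals were scaled so that positive-control wells equalled 100% and DMSO wells 0%. IC50 values were derived by fitting a four-parameter logistic curve.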

Row | SMILES | IC50 of cell viability [µM]
1 | CC(=O)OCC(=O)[C@@]1(O)CC[C@@H]2[C@H]3CC\C4=C\C(=O)\C=C/[C@]4(C)[C@]3(F)[C@@H](O)C[C@@]12C [Isoflupredone acetate] | > 46
2 | CN[C@@H](C)CC\C=C(/C)C.CN[C@@H](C)CC\C=C(/C)C.O[C@@H]([C@@H](O)[C@@H](O)C(O)=O)[C@H](O)C(O)=O [Isometheptene mucate] | > 46
3 | NNC(=O)c1ccncc1 [Isoniazid] | > 46
4 | CC(C)[N+](C)(CCC(C(N)=O)(c1ccccc1)c1ccccc1)C(C)C [Isopropamide iodide] | > 46
5 | C[C@H](N[C@@H](C)COc1ccccc1)[C@H](O)c1ccc(O)cc1 [Isoxsuprine hydrochloride] | > 46
6 | COC(=O)\C1=C(/C)N\C(=C(/[C@H]1C2=CC=CC3=NON=C23)C(=O)OC(C)C)C [Isradipine] | > 46
7 | CO[C@H]1[C@@H](O[C@@H]2O[C@@H](C)[C@@H](O[C@H]3C[C@](C)(O)[C@H](OC(=O)CC(C)C)[C@H](C)O3)[C@@H](N(C)C)[C@H]2O)[C@H](CC=O)C[C@@H](C)[C@@H](O)/C=C\C=C/C[C@@H](C)OC(=O)C[C@H]1OC(C)=O [Josamycin] | > 46
8 | C=C(C)[C@H]1CN[C@H](C(=O)O)[C@H]1CC(=O)O [KAINIC ACID] | > 46
9 | NCC1O[C@@H](OC2C(N)C[C@H](N)[C@@H](O[C@H]3OC(CO)C(O)C(N)C3O)C2O)C(N)C(O)C1O (stereo partly drawn) [KANAMYCIN B] | > 46
10 | O=C(c1ccc(F)cc1)C1CCN(CCn2c(=O)[nH]c3ccccc3c2=O)CC1 [KETANSERIN] | > 46
11 | CN1CCC(=C2c3ccccc3CC(=O)c3sccc32)CC1 [KETOTIFEN] | > 46
12 | OC\C1=C\C(=O)\C(=C/O1)O [KOJIC ACID] | > 46
13 | NC[C@@H]1O[C@@H](O[C@H]2[C@@H](O)[C@H](O[C@@H]3O[C@@H](CO)[C@H](O)[C@H](N)[C@@H]3O)[C@@H](N)C[C@H]2N)[C@H](O)[C@H](O)[C@@H]1O [Kanamycin A sulfate] | > 46
14 | CC(=O)N1CCN(c2ccc(OC[C@@H]3CO[C@@](Cn4ccnc4)(c4ccc(Cl)cc4Cl)O3)cc2)CC1 [Ketoconazole] | > 46
15 | C[C@@H](C(=O)O)c1cccc(C(=O)c2ccccc2)c1 [Ketoprofen] | > 46
16 | O=C(c1ccccc1)c1ccc2n1CCC2C(=O)O (stereo not drawn) [Ketorolac tris salt] | > 46
17 | NC(CO)(CO)CO.O=C(c1ccccc1)c1ccc2n1CC[C@H]2C(=O)O [Ketorolac tromethamine] | > 46

Row | SMILES | IC50 of cell viability [µM]
18 | COC1=C2O\C(=C/C(=O)C2=C(OC)C3=C1OC=C3)C [Khellin] | > 46
19 | O=C1C=C(CO)OCC1=O [Kojic acid] | > 46
20 | N[C@@H](Cc1ccc(O)c(O)c1)C(=O)O [L-3,4-DIHYDROXYPHENYL-ALANINE] | > 46
21 | O=C(CO)[C@@H](O)[C@H](O)[C@@H](O)CO [L-(-)-Sorbose] | > 46
22 | N=C(N)NCCC[C@H](N)C(=O)O [L-Arginine] | > 46
23 | O=C1O[C@H]([C@@H](O)CO)C(O)=C1O [L-Ascorbic acid] | > 46
24 | CCOC(=O)[C@@H](N)CS [L-CYSTEINE ETHYLESTER HYDROCHLORIDE] | > 46
25 | N[C@@H](CCC(=O)O)C(=O)O [L-GLUTAMIC ACID] | > 46
26 | Cl.N[C@@H](Cc1c[nH]cn1)C(=O)O [L-Histidine hydrochloride] | > 46
27 | CNC(=N)NCCC[C@H](N)C(=O)O [L-NMMA] | > 46
28 | OCC1O[C@H](OC2C(CO)O[C@@](O)(CO)C2O)C(O)C(O)C1O (stereo partly drawn) [LACTULOSE] | > 46
29 | O=C(CS(=O)Cc1ccco1)NC/C=C/COc1cc(CN2CCCCC2)ccn1 (stereo not drawn) [LAFUTIDINE] | > 46
30 | CC(=O)O[C@H]1C[C@H](O[C@H]2[C@@H](O)CC(O[C@H]3[C@@H](O)C[C@H](O[C@H]4CC[C@@]5(C)[C@H](CC[C@@H]6[C@@H]5CC[C@]5(C)[C@@H](C7=CC(=O)OC7)CC[C@]65O)C4)O[C@@H]3C)O[C@@H]2C)O[C@H](C)[C@H]1O[C@@H]1O[C@H](CO)[C@@H](O)[C@H](O)[C@H]1O (stereo partly drawn) [LANATOSIDE A] | > 46
31 | CC1O[C@@H](CC(O)[C@H]1O[C@H]2CC(O)[C@@H](O[C@H]3CC(OC(C)=O)[C@H](O[C@H]4OC(CO)C(O)C(O)C4O)[C@@H](C)O3)C(C)O2)OC5CC[C@]6(C)C(CCC7C6CC(O)[C@@]8(C)C(CC[C@@]78O)\C9=C\C(=O)OC9)C5 (stereo partly drawn) [LANATOSIDE C] | > 46
32 | N#C/C(=C1/SCC(c2ccccc2Cl)S1)n1ccnc1 (stereo not drawn) [LANOCONAZOLE] | > 46
33 | C[C@H](CN1CCCC1)C(=O)c1ccc(C(F)(F)F)cc1 [LANPERISONE HYDROCHLORIDE] | > 46
